In patent publication US11440909B2, “10H-phenothiazine ferroptosis inhibitor as well as the preparative method and the use thereof” (CHENGDU HENGHAO INVESTMENT CO. LIMITED, priority 2018, dated 2022):
Where two headings read alike, the source gives them in different places.

System: fibrosarcoma cell line HT1080
Experiment: Ferroptosis screening model (MTT method), Erastin-induced ferroptosis
Format: cell-based, human
Conditions: HT1080, ferroptosis inducer Erastin, 72 h, average of three tests, read-out: EC50
Protocol: The screening model for ferroptosis mainly used MTT method. First, the fibrosarcoma cell line HT1080 was cultured in a dish, and the cells in the logarithmic growth phase were inoculated into a 96-well plate in a certain number (3000-10000 cells/well), 100 μL per well, and then the plate was put in an 5% CO2 incubator at 37° C., to allow the cells to adhere. After 24 h, 100 μL compound solution at a certain concentration prepared in the designated medium and ferroptosis inducer Erastin (with a final concentration of […]) were added, setting 3 replicate wells for each compound to ensure the accuracy of the results, and a negative control group, a positive control group (Fer-15 μM), a blank control group and a solvent control group were included. After addition of drugs, the plate was placed in an incubator and cultivated for 72 h. On the day of MTT experiment, MTT test solution (5 mg/mL MTT solution dissolved in physiological saline, and stored in the dark at 4° C.) was pre-prepared and 20 μL MTT solution was added to each well, then the plate was put in an incubator and continued to incubate for 2-4 h. After that, 50 μL of 20% SDS solution (dissolved in MiliiQ water, added with 1% concentrated hydrochloric acid) was added to each well and kept in an incubator overnight. On the next day, the absorbance at 570 nm was measured with a microplate reader, to calculate the inhibition rate of drugs on ferroptosis. Generally, the absorbance value of the control group should be in the range of 0.8-1.2 as a normal value.
GraphPadPrism5 software was used to fit the change curve of inhibition rate and calculate the EC50.

SMILES | EC50 (Homo sapiens, HT-1080, 72 h) [nM] | EC50 [nM]
Cc1cc(C(C)c2ccc3c(c2)Nc2ccccc2S3)ccc1OCc1ccccc1 (centres unmarked) [Compound A54, 2-(1-(4-(benzyloxyl)-3-methylphenyl)ethyl)-10H-phenothiazine] | 68 | –
CC(c1cccc(O)c1)c1ccc2c(c1)Nc1ccccc1S2 (centres unmarked) [Compound A6, 3-(1-(10H-phenothiazin-2-yl)ethyl)phenol] | 5 | –
C=C(c1cccc(C(=O)c2ccccc2)c1)c1ccc2c(c1)Nc1ccccc1S2 [Compound B33, (3-(1-(10H-phenothiazin-2-yl)ethenyl)phenyl)benzophenone] | 111 | –
C=C(c1cccc(OC(C)C)c1)c1ccc2c(c1)Nc1ccccc1S2 [Compound B23, 2-(1-(3-isopropoxylphenyl)ethenyl)-10H-phenothiazine] | 48 | –
C=C(c1ccc(N2CCOCC2)cc1)c1ccc2c(c1)Nc1ccccc1S2 [Compound B15, 4-(4-(1-(10H-phenothiazin-2-yl)ethenyl)phenyl)morpholine] | – | 680
CCOC(=O)c1ccc(NC2CCCCC2)c(N)c1 [Fer-1, Ferrostatin-1, reference compound] | – | 60
C=C(c1cccc(N)c1)c1ccc2c(c1)Nc1ccccc1S2 [Compound B17, 3-(1-(10H-phenothiazin-2-yl)ethenyl)phenylamine] | 17 | –
C=C(c1cccc(S(N)(=O)=O)c1)c1ccc2c(c1)Nc1ccccc1S2 [Compound B20, 3-(1-(10H-phenothiazin-2-yl)ethenyl)benzenesulfonamide] | 10 | –
C=C(c1ccc(S(=O)(=O)N2CCCC2)cc1)c1ccc2c(c1)Nc1ccccc1S2 [Compound B54, 2-(1-(4-(pyrrolin-1-ylsulfonyl)phenyl)ethenyl)-10H-phenothiazine] | 32 | –
C=C(c1ccc(S(=O)(=O)NC2CCC2)cc1)c1ccc2c(c1)Nc1ccccc1S2 [Compound B58, 4-(1-(10H-phenothiazin-2-yl)ethenyl)-N-cyclobutylbenzenesulfonamide] | 66 | –
CC(c1cc(Cl)cc(Cl)c1)c1ccc2c(c1)Nc1ccccc1S2 (centres unmarked) [Compound A57, 2-(1-(3,5-dichlorophenyl)ethyl)-10H-phenothiazine] | 18 | –
C=C(c1ccc2c(c1)Nc1ccccc1S2)c1ccccc1N [Compound B16, 2-(1-(10H-phenothiazin-2-yl)ethenyl)phenylamine] | 29 | –
CCCc1ccc(C(C)c2ccc3c(c2)Nc2ccccc2S3)cc1 (centres unmarked) [Compound A25, 2-(1-(4-propylphenyl)ethyl)-10H-phenothiazine] | 21 | –
C=C(c1ccc(N2CCOCC2)cc1)c1ccc2c(c1)Nc1ccccc1S2 [Compound B14, 4-(4-(1-(10H-phenothiazin-2-yl)ethenyl)phenyl)morpholine] | – | 39
C=C(c1ccc(C(=O)N2CCOCC2)cc1)c1ccc2c(c1)Nc1ccccc1S2 [Compound B47, (4-(1-(10H-phenothiazin-2-yl)ethenyl)phenyl)(morpholine)ketone] | – | 24
CC(c1ccc(F)c(F)c1)c1ccc2c(c1)Nc1ccccc1S2 (centres unmarked) [Compound A39, 2-(1-(3,4-difluorophenyl)ethyl)-10H-phenothiazine] | 17 | –
C=C(c1cccc(O)c1)c1ccc2c(c1)Nc1ccccc1S2 [Compound B18, 3-(1-(10H-phenothiazin-2-yl)ethenyl)phenol] | 40 | –
CCOc1cc(F)cc(C(C)c2ccc3c(c2)Nc2ccccc2S3)c1 (centres unmarked) [Compound A61, 2-(1-(3-ethoxyl-5-fluorophenyl)ethyl)-10H-phenothiazine] | 34 | –
CC(c1ccc2c(c1)Nc1ccccc1S2)c1c2ccccc2cc2ccccc12 (centres unmarked) [Compound A71, 2-(1-(anthrathen-9-yl)ethyl)-10H-phenothiazine] | – | 17
CC(c1cc(F)cc(F)c1)c1ccc2c(c1)Nc1ccccc1S2 (centres unmarked) [Compound A56, 2-(1-(3,5-difluorophenyl)ethyl)-10H-phenothiazine] | 19 | –
C=C(c1ccc2c(c1)Nc1ccccc1S2)c1ccc(OC)c(OC)c1 [Compound B39, 2-(1-(3,4-dimethoxylphenyl)ethenyl)-10H-phenothiazine] | 23 | –
C=C(c1cccc(C(=O)OCC)c1)c1ccc2c(c1)Nc1ccccc1S2 [Compound B28, ethyl3-(1-(10H-phenothiazin-2-yl)ethenyl)benzoic acid] | 27 | –
C=C(c1cccc(N2CCOCC2)c1)c1ccc2c(c1)Nc1ccccc1S2 [Compound B36, 4-(3-(1-(10H-phenothiazin-2-yl)ethenyl)phenyl)morpholine] | 30 | –
Cc1cc(C(C)c2ccc3c(c2)Nc2ccccc2S3)ccn1 (centres unmarked) [Compound A74, 2-(1-(2-methylpyridin-4-yl)ethyl)-10H-phenothiazine] | 3 | –
CC(c1ccc(C(C)(C)C)cc1)c1ccc2c(c1)Nc1ccccc1S2 (centres unmarked) [Compound A29, 2-(1-(4-t-butylphenyl)ethyl)-10H-phenothiazine] | 7 | –
C=C(c1cccc(OCc2ccccc2)c1)c1ccc2c(c1)Nc1ccccc1S2 [Compound B35, 2-(1-(3-(benzyloxyl)phenyl)ethenyl)-10H-phenothiazine] | 53 | –
CCc1cccc(C(C)c2ccc3c(c2)Nc2ccccc2S3)c1 (centres unmarked) [Compound A9, 2-(1-(3-ethylphenyl)ethyl)-10H-phenothiazine] | 18 | –

Continued, values first:

EC50 (Homo sapiens, HT-1080, 72 h) [nM] | EC50 [nM] | SMILES
49 | – | CC(c1ccc2c(c1)Nc1ccccc1S2)S(=O)(=O)N1CCC(N2CCCCC2)CC1 (centres unmarked) [Compound C43, 2-(1-([1,4′-dipiperidin]-1′-ylsulfonyl)ethyl)-10H-phenothiazine]
117 | – | CC(c1ccc2c(c1)Nc1ccccc1S2)S(=O)(=O)N1CC[C@H](O)C1 (some centres unmarked) [Compound C41]
342 | – | CC(c1ccc2c(c1)Nc1ccccc1S2)S(=O)(=O)N1CCCC(CNC(=O)OC(C)(C)C)C1 (centres unmarked) [Compound C35, t-butyl ((1-((1-(10H-phenothiazin-2-yl)ethyl)sulfonyl)piperidin-3-yl)methyl)carbamate]
142 | – | CC(c1ccc2c(c1)Nc1ccccc1S2)S(=O)(=O)N1CCCC(O)C1 (centres unmarked) [Compound C40, 1-((1-(10H-phenothiazin-2-yl)ethyl)sulfonyl)piperidin-3-ol]
225 | – | CC(c1ccc2c(c1)Nc1ccccc1S2)S(=O)(=O)N1CCC(C(N)=O)CC1 (centres unmarked) [Compound C47, 1-((1-(10H-phenothiazin-2-yl)ethyl)sulfonyl)piperidin-4-formamide]
142 | – | Cc1ccc(N2CCN(S(=O)(=O)C(C)c3ccc4c(c3)Nc3ccccc3S4)CC2)cc1 (centres unmarked) [Compound C59, 2-(1-((4-(p-methylphenyl)piperazin-1-yl)sulfonyl)ethyl)-10H-phenothiazine]
– | 730 | COc1ccccc1N1CCN(S(=O)(=O)C(C)c2ccc3c(c2)Nc2ccccc2S3)CC1 (centres unmarked) [Compound C22, 2-(1-((4-(2-methoxylphenyl)piperazin-1-yl)sulfonyl)ethyl)-10H-phenothiazine]
– | 142 | CC(c1ccc2c(c1)Nc1ccccc1S2)S(=O)(=O)N1CCN(c2ccccc2)CC1 (centres unmarked) [Compound C28, 2-(1-((4-phenylpiperazin-1-yl)sulfonyl)ethyl)-10H-phenothiazine]
34 | – | CC(c1ccc2c(c1)Nc1ccccc1S2)S(=O)(=O)N1CCN(C)CC1 (centres unmarked) [Compound C2, 2-(1-((4-methylpiperazin-1-yl)sulfonyl)ethyl)-10H-phenothiazine]
185 | – | CC(c1ccc2c(c1)Nc1ccccc1S2)S(=O)(=O)N1CCN(CC(=O)N2CCCC2)CC1 (centres unmarked) [Compound C6, 2-(4-((1-(10H-phenothiazin-2-yl)ethyl)sulfonyl)piperazin-1-yl)-1-(pyrrolin-1-yl)-1-ethanone]
69 | – | CC(c1ccc2c(c1)Nc1ccccc1S2)S(=O)(=O)N1CCN(c2ncccn2)CC1 (centres unmarked) [Compound C52, 2-(1-((4-(pyrimidin-2-yl)piperazin-1-yl)sulfonyl)ethyl)-10H-phenothiazine]
156 | – | CC1CCCN(S(=O)(=O)C(C)c2ccc3c(c2)Nc2ccccc2S3)C1 (centres unmarked) [Compound C46, 2-(1-((3-methylpiperidin-1-yl)sulfonyl)ethyl)-10H-phenothiazine]
– | 417 | CC(c1ccc2c(c1)Nc1ccccc1S2)S(=O)(=O)N1CCN(c2ccccc2)CC1 (centres unmarked) [Compound C24, 2-(1-((4-phenylpiperazin-1-yl)sulfonyl)ethyl)-10H-phenothiazine]
229 | – | CC(c1ccc2c(c1)Nc1ccccc1S2)S(=O)(=O)N1CCCC(CO)C1 (centres unmarked) [Compound C38, (1-((1-(10H-phenothiazin-2-yl)ethyl)sulfonyl)piperidin-3-yl)methanol]
213 | – | CC(c1ccc2c(c1)Nc1ccccc1S2)S(=O)(=O)N1CCN(c2ccc(C(F)(F)F)cc2)CC1 (centres unmarked) [Compound C56, 2-(1-((4-(4-(trifluoromethyl)phenyl)piperazin-1-yl)sulfonyl)ethyl)-10H-phenothiazine]
233 | – | CC(c1ccc2c(c1)Nc1ccccc1S2)S(=O)(=O)N1CCN(c2ccc(F)cc2)CC1 (centres unmarked) [Compound C34, 2-(1-((4-(4-fluorophenyl)piperazin-1-yl)sulfonyl)ethyl)-10H-phenothiazine]
405 | – | CC(=O)N1CCCN(S(=O)(=O)C(C)c2ccc3c(c2)Nc2ccccc2S3)CC1 (centres unmarked) [Compound C25, 1-(4-((1-(10H-phenothiazin-2-yl)ethyl)sulfonyl)-1,4-homopiperazin-1-yl)-1-ethanone]
